Results as given in patent US20210163404A1, “NOVEL UREA COMPOUNDS AND BIOISOSTERES THEREOF AND THEIR USE FOR TREATING INFLAMMATION AND INFLAMMATION-RELATED PATHOLOGIES” (UNIVERSITÉ LAVAL, priority 2017, published 2021).

Key:
[1] = system: A549 adenocarcinoma alveolar epithelial cancer cells; test: Antiproliferative activity (NCI procedure, sulforhodamine B), A549; format: cell-based, human; details: Homo sapiens, A549, unit inferred, tested 781 nM to 100 μM, 48 h
Protocol: (§1) The antiproliferative activity of compounds 3a-b, 4a-e, 5a-e and 6a-e was subsequently evaluated using the human HT-29 colon adenocarcinoma and the A549 adenocarcinoma alveolar epithelial cancer cell lines, the HaCaT spontaneously transformed aneuploid immortal keratinocyte cell line and the HDFn neonatal dermal fibroblast cell line (Table 2). Cell growth inhibition was assessed according to the NCI/NIH Developmental Therapeutics Program.
(§2) The antiproliferative activity assay of all compounds was assessed using the procedure recommended by the National Cancer Institute for its drug screening program with minor modifications. Briefly, 96-well microtiter plates were seeded with 75 μL of a suspension of either HaCaT (5×10^3), HT-29 (3.0×10^3), A549 (3.0×10^3) or HDFn (3×10^3) cells per well in DMEM and incubated for 24 h at 37° C. in a moisture-saturated atmosphere containing 5% CO2. Compounds freshly solubilized in DMSO (40 mM) were diluted in fresh DMEM, and 75 μL aliquots containing serially diluted concentrations of the compound were added. Final compound concentrations ranged from 100 μM to 781 nM. DMSO was maintained at a concentration of <0.5% (v/v) to avoid any related cytotoxicity. Plates were subsequently incubated for 48 h. Cell growth was then stopped by the addition of cold trichloroacetic acid to the wells (10% w/v, final concentration), followed by a 1 h incubation period at 4° C. The plates were washed 4-times with water. A sulforhodamine B solution (75 μL; 0.1% w/v) in acetic acid (1%) was subsequently added to each well and the plates incubated over a 15 min period while at room temperature. After staining, any unbound dye was removed by washing 4-times with an acetic acid solution (1%). Bound dye was solubilized in 20 mM Tris base and the absorbance was measured at an optimal wavelength (530-568 nm) using a μQuant® Universal microplate spectrophotometer (BioTek, Winooski, Vt.). The measurements for treated cells were compared with measurements from control cell plates fixed on treatment day and the percentage of cell growth inhibition was calculated for each drug. The experiments were performed at least twice in triplicate. The assays were considered valid when the coefficient of variation for a given set of conditions and within the same experiment was <10%.

[2] = system: HDFn neonatal dermal fibroblast cell line; test: Antiproliferative activity (NCI procedure, sulforhodamine B), HDFn; format: cell-based, human; details: Homo sapiens, Fibroblast, unit inferred, tested 781 nM to 100 μM, 48 h
Protocol: as §1, §2

[3] = system: HT-29 colon adenocarcinoma cells; test: Antiproliferative activity (NCI procedure, sulforhodamine B), HT-29; format: cell-based, human; details: Homo sapiens, HT-29, unit inferred, tested 781 nM to 100 μM, 48 h
Protocol: as §1, §2

[4] = system: HaCaT keratinocyte cell line; test: Antiproliferative activity (NCI procedure, sulforhodamine B), HaCaT; format: cell-based, human; details: Homo sapiens, HaCaT, unit inferred, tested 781 nM to 100 μM, 48 h
Protocol: as §1, §2

SMILES	IC50 ([1]; Table 7)	IC50 ([2]; Table 7)	IC50 ([3]; Table 7)	IC50 ([4]; Table 7)	also measured
O=c1c(Nc2cccc(I)c2)c(NC2CC2)c1=O [Compound 73]	26.8 µM	19.6 µM	39.8 µM	37.7 µM	
O=c1c(Nc2ccc(I)cc2)c(NC2CC2)c1=O [Compound 70]	> 100 µM	> 100 µM	> 100 µM	> 100 µM	
CCC(CC)NC(=O)Nc1ccc(C2CCCCC2)cc1 [Compound 62, 1-(4-Cyclohexylphenyl)-3-(pentan-3-yl)urea]					melting point: 174 to 176 °C
O=c1c(Nc2cccc(I)c2)c(NC2CCCC2)c1=O [Compound 75]	9 µM	4.6 µM	15.2 µM	11.8 µM	
O=c1c(NCC2CCC2)c(Nc2ccc(I)cc2)c1=O [Compound 71]	> 100 µM	> 100 µM	> 100 µM	> 100 µM	
O=C(Nc1ccc(C2CCCCC2)cc1)NC1CC=CC1 [Compound 60, 1-(4-Cyclohexylphenyl)-3-(cyclopent-3-en-1-yl)urea]					melting point: 167 to 169 °C
O=C(Nc1cccc(I)c1)NC1CC=CC1 [Compound 41, 1-(Cyclopent-3-en-1-yl)-3-(3-iodophenyl)urea]					melting point: 151 to 153 °C
O=c1c(NCC2CCC2)c(Nc2ccc(C3CCCCC3)cc2)c1=O [Compound 77]	89.6 µM	> 100 µM	> 100 µM	> 100 µM	
O=c1c(NCC2CCC2)c(Nc2cccc(C3CCCCC3)c2)c1=O [Compound 80]	4.2 µM	1.9 µM	4.5 µM	6 µM	
O=c1c(Nc2ccc(C3CCCCC3)cc2)c(NC2CCCC2)c1=O [Compound 78]	96.1 µM	> 100 µM	> 100 µM	> 100 µM	
CC(C)(C)c1ccc(Nc2c(NCC3CCC3)c(=O)c2=O)cc1 [Compound 83]	> 100 µM	> 100 µM	> 100 µM	> 100 µM	
CCNC(=S)Nc1cccc(C2CCCCC2)c1 [Compound 104]					IC50 ([1]; Table 8): 22.4 µM; IC50 ([2]; Table 8): 12.9 µM; IC50 ([3]; Table 8): 17.9 µM; IC50 ([4]; Table 8): 19.3 µM
CC(C)(C)c1ccc(Nc2c(NC3CC3)c(=O)c2=O)cc1 [Compound 82]	17.9 µM	13.2 µM	18.7 µM	47.9 µM	
CC(C)NC(=O)Nc1ccc(I)cc1 [Compound 1]					IC50 ([1]; Table 5): 81.9 µM; IC50 ([2]; Table 5): 83.6 µM; IC50 ([3]; Table 5): 54.8 µM; IC50 ([4]; Table 5): 91.9 µM
O=c1c(Nc2cccc(C3CCCCC3)c2)c(NC2CC2)c1=O [Compound 79]	8 µM	4.3 µM	7.9 µM	11 µM	
O=c1c(NCC2CCC2)c(Nc2cccc(I)c2)c1=O [Compound 74]	8.3 µM	4.1 µM	15 µM	10.9 µM	
CC(C)(C)c1cccc(Nc2c(NC3CC3)c(=O)c2=O)c1 [Compound 85]	40.8 µM	57.3 µM	64.1 µM	81.4 µM	
CC(C)(C)c1cccc(Nc2c(NCC3CCC3)c(=O)c2=O)c1 [Compound 86]	13.7 µM	3.8 µM	14.8 µM	56.1 µM	
O=c1c(Nc2ccc(C3CCCCC3)cc2)c(NC2CC2)c1=O [Compound 76]	74 µM	> 100 µM	> 100 µM	> 100 µM	
CC(C)(C)c1cccc(Nc2c(NC3CCCC3)c(=O)c2=O)c1 [Compound 87]	4 µM	2.8 µM	4.3 µM	5.5 µM	
CC(C)(C)c1ccc(Nc2c(NC3CCCC3)c(=O)c2=O)cc1 [Compound 84]	15.1 µM	> 100 µM	> 100 µM	> 100 µM	
O=c1c(Nc2ccc(I)cc2)c(NC2CCCC2)c1=O [Compound 72]	8 µM	6.9 µM	10 µM	10.6 µM	
O=c1c(Nc2cccc(C3CCCCC3)c2)c(NC2CCCC2)c1=O [Compound 81]	3.7 µM	1.9 µM	4.3 µM	5.6 µM	
